Laboratory results as given in ChEMBL document CHEMBL1124790, “Angiotensin converting enzyme inhibitors. 10. Aryl sulfonamide substituted N-[1-carboxy-3-phenylpropyl]-L-alanyl-L-proline derivatives as novel antihypertensives” (J Med Chem, 1990).
“And” between values parts separate entries of the source, which are not always exact repeats. Equal entries are not always repeated. Blank lines part the entries; values can stand above or below the compound they belong to. The source made the active and inactive calls. The calls are words filed in the database; no cut-off is given here.

How the values were obtained:
[1] = tested on: Rattus norvegicus; test: Percent change in K+ in fasted rats at the dose of 100 mg/kg (po), 0-5 h; type: functional
[2] = target: T1, Angiotensin-converting enzyme (Oryctolagus cuniculus) (UniProt P12822); test: Time to maximum inhibition of angiotensin I converting enzyme in rabbit lung; type: functional, tissue-based
T1 sequence (whole entry): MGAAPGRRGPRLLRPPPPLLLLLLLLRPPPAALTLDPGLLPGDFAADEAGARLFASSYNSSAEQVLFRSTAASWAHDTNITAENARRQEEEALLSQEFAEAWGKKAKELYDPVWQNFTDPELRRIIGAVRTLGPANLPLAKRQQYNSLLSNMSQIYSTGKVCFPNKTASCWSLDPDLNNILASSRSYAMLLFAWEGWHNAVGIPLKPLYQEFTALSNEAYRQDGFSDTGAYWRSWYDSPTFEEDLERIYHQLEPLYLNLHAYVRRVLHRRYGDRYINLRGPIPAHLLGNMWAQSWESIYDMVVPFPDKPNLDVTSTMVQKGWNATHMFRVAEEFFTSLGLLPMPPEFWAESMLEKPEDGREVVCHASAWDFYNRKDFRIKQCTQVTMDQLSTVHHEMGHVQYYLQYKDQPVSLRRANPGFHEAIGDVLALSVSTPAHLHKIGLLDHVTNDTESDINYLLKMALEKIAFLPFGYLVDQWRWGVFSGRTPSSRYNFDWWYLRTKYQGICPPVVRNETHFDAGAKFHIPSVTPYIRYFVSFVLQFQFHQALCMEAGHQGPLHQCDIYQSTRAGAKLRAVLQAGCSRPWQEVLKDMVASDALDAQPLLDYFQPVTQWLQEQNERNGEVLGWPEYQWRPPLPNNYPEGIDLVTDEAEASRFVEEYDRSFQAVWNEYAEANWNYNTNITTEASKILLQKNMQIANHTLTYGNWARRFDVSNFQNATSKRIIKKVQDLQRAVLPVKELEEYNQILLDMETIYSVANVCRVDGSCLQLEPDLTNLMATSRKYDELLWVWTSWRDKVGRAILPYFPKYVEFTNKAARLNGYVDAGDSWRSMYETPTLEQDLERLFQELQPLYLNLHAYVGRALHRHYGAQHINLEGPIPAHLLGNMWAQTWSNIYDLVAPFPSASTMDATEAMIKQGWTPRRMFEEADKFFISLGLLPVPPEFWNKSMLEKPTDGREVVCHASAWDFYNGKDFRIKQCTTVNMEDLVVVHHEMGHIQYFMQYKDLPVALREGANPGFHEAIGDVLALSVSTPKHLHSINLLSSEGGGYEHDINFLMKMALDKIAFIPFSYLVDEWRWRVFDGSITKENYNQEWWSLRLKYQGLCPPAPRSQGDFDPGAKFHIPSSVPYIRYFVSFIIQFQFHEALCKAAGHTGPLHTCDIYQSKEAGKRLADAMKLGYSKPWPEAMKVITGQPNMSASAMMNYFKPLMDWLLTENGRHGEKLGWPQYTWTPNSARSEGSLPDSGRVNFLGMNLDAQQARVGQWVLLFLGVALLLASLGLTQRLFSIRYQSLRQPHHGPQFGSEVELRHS

[3] = target: T1, Angiotensin-converting enzyme (Oryctolagus cuniculus); test: In vivo inhibition of angiotensin I converting enzyme (ACE) in rabbit lung after (ip) administration of a dose of 10(mg/kg); type: organism-based
[4] = target: T1, Angiotensin-converting enzyme (Oryctolagus cuniculus); test: In vivo inhibition of angiotensin I converting enzyme(ACE) in rabbit lung at the dose of 10(mg/kg), po; type: organism-based
[5] = target: T1, Angiotensin-converting enzyme (Oryctolagus cuniculus); test: Time to inhibit maximum angiotensin I converting enzyme in rabbit lung; type: functional, tissue-based
[6] = tested on: Rattus norvegicus; test: Percent change in Na+in fasted rats at the dose of 100 mg/kg (po), 5-24 h; type: functional
[7] = tested on: Rattus norvegicus; test: Percent change in K+ in fasted rats at the dose of 100 mg/kg (iv), 0-5 h; NA=Inactive; type: functional, organism-based; set-up: dose 100 mg/kg
[8] = tested on: Rattus norvegicus; test: Percent change in urinary volume in fasted rats at the dose of 100 mg/kg (po), 0-5 h; type: functional, Urine
[9] = tested on: Rattus norvegicus; test: Percent change in Na+in fasted rats at the dose of 100 mg/kg (po), 0-5 h; type: functional
[10] = target: T2, Angiotensin-converting enzyme (Oryctolagus cuniculus, UniProt P12822); test: In vitro inhibition of angiotensin I converting enzyme (ACE) in rabbit lung; type: tissue-based
T2 sequence (P12822 whole entry): T1 sequence (whole entry)

[11] = tested on: Rattus norvegicus; test: Percent change in K+ in fasted rats at the dose of 100 mg/kg (po), 5-24 h; type: functional
[12] = tested on: Rattus norvegicus; test: Percent change in urinary volume in fasted rats at the dose of 100 mg/kg (po), 5-24 h; type: functional, Urine
[13] = organism: Rattus norvegicus; test: The onset hour was determined in rat; type: functional
[14] = tested on: Rattus norvegicus; test: Time duration was determined for the actioni (determination of MAP in po administration) in rat; type: functional
[15] = target: T1, Angiotensin-converting enzyme (Oryctolagus cuniculus); test: Time to inhibit maximum Angiotensin I converting enzyme in rabbit lung; type: functional, tissue-based
[16] = tested on: Rattus norvegicus; test: Antihypertensive activity was determined in spontaneously hypertensive rat at a dose of 3 mg/kg(po) administration; type: functional
[17] = target: Angiotensin-converting enzyme (Homo sapiens) (UniProt P12821+Q9BYF1); conditions: Sus scrofa; Plasma
Angiotensin-converting enzyme (Homo sapiens), sequence (P12821 whole entry, looked up): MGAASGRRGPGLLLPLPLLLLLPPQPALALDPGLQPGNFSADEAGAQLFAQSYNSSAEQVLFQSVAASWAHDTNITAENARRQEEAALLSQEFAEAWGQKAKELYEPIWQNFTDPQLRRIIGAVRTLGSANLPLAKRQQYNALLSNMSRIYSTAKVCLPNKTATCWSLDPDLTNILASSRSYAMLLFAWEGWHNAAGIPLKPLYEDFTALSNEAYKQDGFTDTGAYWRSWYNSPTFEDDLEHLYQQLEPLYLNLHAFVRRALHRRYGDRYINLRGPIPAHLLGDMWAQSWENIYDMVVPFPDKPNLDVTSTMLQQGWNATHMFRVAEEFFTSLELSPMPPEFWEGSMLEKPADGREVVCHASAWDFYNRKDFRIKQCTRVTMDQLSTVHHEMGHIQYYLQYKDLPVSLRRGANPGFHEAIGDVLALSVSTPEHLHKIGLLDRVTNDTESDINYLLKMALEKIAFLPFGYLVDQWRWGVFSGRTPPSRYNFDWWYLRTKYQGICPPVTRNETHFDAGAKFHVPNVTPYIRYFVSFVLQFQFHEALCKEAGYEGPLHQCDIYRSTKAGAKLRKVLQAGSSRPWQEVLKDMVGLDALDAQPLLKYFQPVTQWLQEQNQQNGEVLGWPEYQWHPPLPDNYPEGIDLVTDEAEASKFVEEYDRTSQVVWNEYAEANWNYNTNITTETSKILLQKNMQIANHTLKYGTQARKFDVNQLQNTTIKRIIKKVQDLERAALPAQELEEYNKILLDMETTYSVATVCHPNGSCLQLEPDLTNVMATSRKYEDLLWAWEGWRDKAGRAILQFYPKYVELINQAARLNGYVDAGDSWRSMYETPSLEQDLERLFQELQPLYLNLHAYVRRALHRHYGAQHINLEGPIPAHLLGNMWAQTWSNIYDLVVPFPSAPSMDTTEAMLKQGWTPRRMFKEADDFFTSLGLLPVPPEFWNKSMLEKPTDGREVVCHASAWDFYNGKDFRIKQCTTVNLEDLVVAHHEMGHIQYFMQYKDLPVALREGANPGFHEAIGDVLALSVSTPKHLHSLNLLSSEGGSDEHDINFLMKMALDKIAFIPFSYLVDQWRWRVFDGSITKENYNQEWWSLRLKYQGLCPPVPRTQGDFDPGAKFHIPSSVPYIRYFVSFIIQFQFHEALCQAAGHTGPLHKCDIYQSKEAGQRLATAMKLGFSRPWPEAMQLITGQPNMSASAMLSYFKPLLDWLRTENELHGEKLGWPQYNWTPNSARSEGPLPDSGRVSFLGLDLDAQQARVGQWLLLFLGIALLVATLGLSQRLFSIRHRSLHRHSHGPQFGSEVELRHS
Angiotensin-converting enzyme (Homo sapiens), sequence (Q9BYF1 whole entry, looked up): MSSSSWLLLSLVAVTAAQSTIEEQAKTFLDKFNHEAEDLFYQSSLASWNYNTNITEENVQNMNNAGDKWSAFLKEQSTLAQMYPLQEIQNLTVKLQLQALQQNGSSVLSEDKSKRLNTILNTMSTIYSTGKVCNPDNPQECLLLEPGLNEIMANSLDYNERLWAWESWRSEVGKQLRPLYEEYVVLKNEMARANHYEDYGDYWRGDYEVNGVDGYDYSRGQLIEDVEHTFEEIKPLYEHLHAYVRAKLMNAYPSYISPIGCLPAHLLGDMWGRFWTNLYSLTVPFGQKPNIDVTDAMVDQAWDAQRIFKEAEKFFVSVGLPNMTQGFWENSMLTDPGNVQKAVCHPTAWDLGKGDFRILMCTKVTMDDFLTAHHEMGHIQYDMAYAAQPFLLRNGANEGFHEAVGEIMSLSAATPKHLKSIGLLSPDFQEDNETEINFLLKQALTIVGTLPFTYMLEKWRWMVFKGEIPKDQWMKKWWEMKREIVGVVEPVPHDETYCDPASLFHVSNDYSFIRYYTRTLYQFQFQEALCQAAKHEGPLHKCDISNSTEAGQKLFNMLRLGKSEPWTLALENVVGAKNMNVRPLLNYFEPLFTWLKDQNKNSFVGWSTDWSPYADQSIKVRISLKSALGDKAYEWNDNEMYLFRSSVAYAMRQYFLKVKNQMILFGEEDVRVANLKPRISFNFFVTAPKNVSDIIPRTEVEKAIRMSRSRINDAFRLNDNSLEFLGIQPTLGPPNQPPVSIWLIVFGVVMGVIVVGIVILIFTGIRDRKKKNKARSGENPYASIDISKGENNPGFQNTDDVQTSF

[18] = target: T1, Angiotensin-converting enzyme (Oryctolagus cuniculus); conditions: Lung
[19] = tested on: Rattus norvegicus; test: Percent change in Na+ in fasted rats at the dose of 30 mg/kg (iv), 0-5 h; type: functional
[20] = target: T1, Angiotensin-converting enzyme (Oryctolagus cuniculus); test: Time during which angiotensin I converting enzyme inhibition is greater than or equa to 30% in rabbit lung; type: functional, tissue-based
[21] = tested on: Rattus norvegicus; test: Time duration was determined for the actioni (determination of MAP in case of oral administration) in rat; type: functional
[22] = target: T1, Angiotensin-converting enzyme (Oryctolagus cuniculus); test: In vivo inhibition of angiotensin I converting enzyme (ACE) in rabbit lung at the dose of 10(mg/kg), po; type: organism-based
[23] = tested on: Rattus norvegicus; test: Percent change in K+ in fasted rats at the dose of 30 mg/kg (iv), 0-5 h; type: functional
[24] = target: T1, Angiotensin-converting enzyme (Oryctolagus cuniculus); test: In vivo inhibition of angiotensin I converting enzyme (ACE) in rabbit lung after (iv) administration of a dose of 10(mg/kg); type: organism-based
[25] = tested on: Rattus norvegicus; test: Time duration was determined for the actioni (determination of MAP in ip administration) in rat; type: functional
[26] = tested on: Rattus norvegicus; test: Antihypertensive activity was determined in spontaneously hypertensive rat at a dose of 100 mg/kg(po) administration; type: functional; conditions: 100 mg/kg
[27] = tested on: Rattus norvegicus; test: Percent change in urinary volume in fasted rats at the dose of 30 mg/kg (iv), 0-5 h; type: functional, Urine
[28] = tested on: Rattus norvegicus; test: Percent change in K+ in fasted rats at the dose of 30 mg/kg (ip), 0-5 h; NA=Inactive; type: functional, organism-based; set-up: dose 30 mg/kg
[29] = target: T1, Angiotensin-converting enzyme (Oryctolagus cuniculus); test: In vivo inhibition of angiotensin I converting enzyme (ACE) in rabbit lung after (po) administration of a dose of 10(mg/kg); type: organism-based
[30] = target: T1, Angiotensin-converting enzyme (Oryctolagus cuniculus); test: In vivo inhibition of Angiotensin I converting enzyme in rabbit lung after (po) administration of a dose of 10(mg/kg); type: organism-based

SMILES: C[C@H](N[C@@H](CCc1ccccc1)C(=O)O)C(=O)N1C(c2ccc(Cl)c(S(N)(=O)=O)c2)SC[C@H]1C(=O)O (stereo partly specified)
Change [1]: 0%
Time to max. inhibition [2]: 0.3 h
inhibition [3]: 96%
inhibition [4]: 44%
Time to max. inhibition [5]: 0.3 h
Change [6]: -22%
Change [7]: inactive
Change [8]: -43%
Change [9]: 0%
IC50 [10]: 8 nM
Change [11]: -45%
Change [12]: -42%

SMILES: CCOC(=O)[C@H](CCc1ccccc1)N[C@@H](C)C(=O)N1CCC[C@H]1C(=O)O
Onset [13]: 1 h
Duration [14]: 4 h
Time to max. inhibition [15]: 1 h
Change in MAP [16]: -10%
Duration [17]: > 3 h
Duration [18]: > 4 h

SMILES: C[C@H](N[C@@H](CCc1ccccc1)C(=O)O)C(=O)N1CC2(C[C@H]1C(=O)O)Nc1cc(Cl)c(S(N)(=O)=O)cc1S(=O)(=O)N2 (stereo partly specified)
Duration [20]: 2.1 h
Change [28]: inactive
inhibition [29]: 54%
Time to max. inhibition [5]: 1 h
IC50 [10]: 85 nM

Second part, led by results:

Duration [20]: > 4 h and 3.7 h
inhibition [22]: 37%
Time to max. inhibition [5]: 2.7 h and 3 h
inhibition [24]: 96%
IC50 [10]: 18 nM
SMILES: C[C@H](N[C@@H](CCc1ccccc1)C(=O)O)C(=O)N1CC(N(C)CCC2Nc3cc(Cl)c(S(N)(=O)=O)cc3S(=O)(=O)N2)C[C@H]1C(=O)O.Cl.Cl (stereo partly specified)
Onset [13]: 0.5 h
Change [19]: 0%
Change [1]: 40%
Duration [21]: >42 h
Change [23]: 0%
Change [8]: 0%
Duration [25]: >24 h
Change [9]: 36%
Change in MAP [26]: -20% and -22%
Change [27]: 0%

Time to max. inhibition [15]: 0.7 h
Duration [18]: 2 h
inhibition [30]: 69%
SMILES: C[C@H](CS)C(=O)N1CCC[C@H]1C(=O)O
